Measurements taken from ChEMBL document CHEMBL1128577, “Synthesis and biological evaluation of novel 2,6-diaminobenz[cd]indole inhibitors of thymidylate synthase using the protein structure as a guide” (J Med Chem, 1995).

Key:
[1] = test system: CCRF-CEM; test: Compound is screened for cell growth inhibition against CCRF-CEM cell line, a human lymphoblastic leukemia line of T-cell origin; type: functional, cell-based
[2] = test system: GC3/MTK-; test: Compound is screened for cell growth inhibition against GC3/MTK-cell line, a human thymidine kinase deficient adenocarcinoma line; type: functional, cell-based
[3] = test system: L1210; test: Compound is screened for cell growth inhibition against L1210 murine leukemia tumor cell line; type: functional, cell-based; conditions: Mus musculus
[4] = biological target: Thymidylate synthase (Homo sapiens, UniProt P04818); test: Inhibitory effect against recombinant human thymidylate synthase
[5] = Compound is evaluated for thymidine shift. […]; type: functional
[6] = biological target: Thymidylate synthase (Escherichia coli, UniProt C3SWJ7); test: Inhibitory effect against Escherichia coli thymidylate synthase
Sequence of Thymidylate synthase (Escherichia coli, UniProt C3SWJ7) (C3SWJ7 whole entry): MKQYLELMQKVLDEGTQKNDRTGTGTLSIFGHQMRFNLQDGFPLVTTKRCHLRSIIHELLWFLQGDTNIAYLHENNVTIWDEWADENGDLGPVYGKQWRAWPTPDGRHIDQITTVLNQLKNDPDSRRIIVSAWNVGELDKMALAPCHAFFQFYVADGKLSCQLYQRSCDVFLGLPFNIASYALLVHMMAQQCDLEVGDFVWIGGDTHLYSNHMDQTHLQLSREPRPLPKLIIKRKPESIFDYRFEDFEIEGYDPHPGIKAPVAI

Sequence of Thymidylate synthase (Homo sapiens, UniProt P04818) (P04818 whole entry): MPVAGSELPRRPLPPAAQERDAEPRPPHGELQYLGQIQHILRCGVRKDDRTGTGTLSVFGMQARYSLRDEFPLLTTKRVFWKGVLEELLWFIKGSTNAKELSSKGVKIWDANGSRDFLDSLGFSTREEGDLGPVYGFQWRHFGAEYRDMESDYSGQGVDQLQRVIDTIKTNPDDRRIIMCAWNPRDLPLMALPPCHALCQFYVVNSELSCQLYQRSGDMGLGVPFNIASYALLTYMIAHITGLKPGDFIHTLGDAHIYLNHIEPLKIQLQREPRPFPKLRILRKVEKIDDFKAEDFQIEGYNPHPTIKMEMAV

Row | IC50 [1] | IC50 [3] | Ki [4] | Ki [6] | Structure (SMILES) | IC50 [2] | Thymidine shift [5]
1 | 3 µM | 1.3 µM | 0.018 µM | – | CN(Cc1ccnc(CO)c1)c1ccc2c3c(cccc13)C(N)=N2 | 11 µM | 6.9
2 | – | – | 0.015 µM | 5.4 µM | CN(Cc1ccc(S(=O)(=O)N2CCOCC2)cc1)c1ccc2c3c(cccc13)C(N)=N2 [METESIND] | – | –
3 | 3 µM | 1 µM | 0.025 µM | – | CCc1cc(CN(C)c2ccc3c4c(cccc24)C(N)=N3)ccn1 | 6.5 µM | 2.8
4 | 4 µM | 0.9 µM | 0.015 µM | 18 µM | CN(Cc1ccnnc1)c1ccc2c3c(cccc13)C(N)=N2 | 5 µM | 7.7
5 | – | – | – | – | CN(Cc1ccc(S(=O)(=O)N2CCOCC2)cc1)c1ccc2c3c(cccc13)C(=N)N2 | – | 6.7
6 | 2.4 µM | 0.095 µM | 0.017 µM | 6.6 µM | CN(Cc1ccncc1)c1ccc2c3c(cccc13)C(N)=N2 | 4.8 µM | 4.9
7 | 9 µM | 6.9 µM | 0.31 µM | – | CNC1=Nc2ccc(N(C)Cc3ccnnc3)c3cccc1c23 | 26 µM | 1.9
8 | 5.1 µM | 1.9 µM | 0.27 µM | – | CNC1=Nc2ccc(N(C)Cc3ccncc3)c3cccc1c23 | 23 µM | 2.6
9 | 1.1 µM | 0.21 µM | 0.014 µM | – | CNC1=Nc2ccc(N(C)Cc3ccncc3)c3c(C)ccc1c23 | 3.6 µM | 4.1
10 | 5.9 µM | 2.1 µM | 0.045 µM | – | CN(Cc1ccnc(C(F)(F)F)c1)c1ccc2c3c(cccc13)C(N)=N2 | 12 µM | 4.2
11 | 0.45 µM | 0.17 µM | 0.004 µM | – | Cc1cc(CN(C)c2ccc3c4c(ccc(C)c24)C(N)=N3)ccn1 | 0.6 µM | 4.1
12 | 3.7 µM | 0.8 µM | 0.03 µM | – | CNC1=Nc2ccc(N(C)Cc3ccnnc3)c3c(C)ccc1c23 | 9.9 µM | 2.6
13 | 2.3 µM | 1.6 µM | 0.014 µM | 1.8 µM | Cc1cc(CN(C)c2ccc3c4c(cccc24)C(N)=N3)ccn1 | 7.9 µM | 2.1
14 | 0.44 µM | 0.16 µM | 0.006 µM | 0.6 µM | Cc1ccc2c3c(ccc(N(C)Cc4ccncc4)c13)N=C2N | 1.1 µM | 2.3

Row | Structure (SMILES) | IC50 [1] | IC50 [3] | Ki [4] | Ki [6] | IC50 [2] | Thymidine shift [5]
15 | CN(Cc1ccnc(Sc2ccccc2)c1)c1ccc2c3c(cccc13)C(N)=N2 | 2 µM | 0.66 µM | 0.052 µM | – | 11.5 µM | 1.8
16 | Cc1ccc2c3c(ccc(N(C)Cc4ccnnc4)c13)N=C2N | 0.78 µM | 0.45 µM | 0.01 µM | – | 2.1 µM | 12.1
